Measurements published in US20230002736A1, “ENDODERM DIFFERENTIATION FROM PLURIPOTENT STEM CELL LINES” (priority 2019, published 2023).
“Also recorded” adds a separate entry of the source. Where two headings read alike, the source gives them in different places.

Key:
iPSC lines [1] = format: cell-based; details: for effect of adding Y-27632 to the protocol including doxycycline: cell lines still difficult to induce; for ability to enhance survival of cells during induction to endoderm, other antibiotic classes compared to doxycycline: FIGS. 2B and 9B
Description: (§1) Induction of Definitive Endoderm (days 1-7). iPSCs were plated on 6-, 12-, or 96-well Matrigel-coated plates at different densities for differentiation in iPSC media containing 10 μM Y-27632 and 2 μM doxycycline. For example, typical plating density in a single well of a 6-well plate was 500,000 cells or 20,000 cells per well for 96-well plates. The differentiation process consisted of one week of RPMI media supplemented with Gem21 NeuroPlex without insulin at 1× (supplied at 50×, Gemini Bio-Products West Sacramento, Calif., catalog #400-962, or supplemented with Gibco B27 without insulin at 1×), Glutagro at 1× (Corning, Manassas, Va., catalog #25-015-CI, non-essential amino acids at 1× (Gibco, catalog #11-140-050), sodium butyrate (0.5 mM, Sigma Aldrich, catalog #B5887) and recombinant human Activin A (100 ng/mL, Peprotech, Rocky Hill, N.J., catalog #120-14E) for 7 days. On day 1, 2% KnockOut Serum Replacement (KSR; Gibco Catalog #10828028), CHIR-99021 (10 ng/mL, Selleckchem catalog #S2924), PI-103 (10 ng/mL,Selleckchem catalog #S1038), recombinant human BMP4 (10 ng/mL, Peprotech catalog #120-05ET) and FGF2 (20 ng/mL, Peprotech catalog #100-18B) were added to the media. On day 2, 1% KSR, PI-103 (10 ng/mL) and BMP4 (10 ng/mL) and FGF2 (20 ng/mL) and on day 3, 0.2% KSR and PI-103 (10 ng/mL) were added to the media. Doxycycline hyclate (Acros Organics catalog #446061000) was added throughout definitive endoderm induction starting on day 0 (passage day) at various concentrations, as described herein, with a standard concentration being 2 μM. These steps can be performed at normal room oxygen at about 20% or at low oxygen between 4 and 6%.

iPSC line AG02261 = experiment: Endoderm induction compound comparison, cell number at day 7, line AG02261; format: cell-based, human; details: for effect on endoderm induction at high concentration: AG02261, 10 μM concentration; for response in compound screen, number of cells seven days after induction: cell line AG02261, FIG. 2B
Description: as §1, with “FIG. 2. Doxycycline Enhanced Endoderm. A: Immunofluorescence and bright-field images showing induction of iPSC line 1023-5 to definitive endoderm (DE) with Hoechst 33342 nuclear staining in blue, and antibody staining in green for OCT3/4, FOXA, HNF1p and CXCR4 with AlexaFluor 488 secondary (green) antibody. […] (scale bar=[…]); B: Compound Screen showing other antibiotics and other compounds affecting the mitochondria were compared to doxycycline. […] The number of cells is shown measured seven days after induction compared to the plating density at day 0 (n=2); C: Comparison of Tetracycline Derivatives in iPSC lines AG02261. […] The number of cells is shown measured seven days after induction compared to the plating density at day 0. […] Induction” for “Induction”

iPSC lines [2] = format: cell-based; details: protocol without doxycycline
iPSC line AS7192 = experiment: Endoderm induction compound comparison, cell number at day 7, line AS7192; format: cell-based, human; details: 1 μM concentration
Description: FIG. 2. Doxycycline Enhanced Endoderm. A: Immunofluorescence and bright-field images showing induction of iPSC line 1023-5 to definitive endoderm (DE) with Hoechst 33342 nuclear staining in blue, and antibody staining in green for OCT3/4, FOXA, HNF1p and CXCR4 with AlexaFluor 488 secondary (green) antibody. […] (scale bar=[…]); B: Compound Screen showing other antibiotics and other compounds affecting the mitochondria were compared to doxycycline. […] The number of cells is shown measured seven days after induction compared to the plating density at day 0 (n=2); C: Comparison of Tetracycline Derivatives in iPSC lines AG02261. […] The number of cells is shown measured seven days after induction compared to the plating density at day 0. […] FIG. 9. Comparison of Tetracycline Derivatives and Other Compounds in additional cell line. A: Induction of iPSC lines AS7192 was performed. […] The number of cells was measured seven days after induction compared to the plating density at day 0. […] Induction of Definitive Endoderm (days 1-7). iPSCs were plated on 6-, 12-, or 96-well Matrigel-coated plates at different densities for differentiation in iPSC media containing 10 μM Y-27632 and 2 μM doxycycline. For example, typical plating density in a single well of a 6-well plate was 500,000 cells or 20,000 cells per well for 96-well plates. […]

## Gentamicin [Gentamycin]
iPSC lines [1]; antibiotics and mitochondria-affecting compounds compared to doxycycline, FIG. 2B
  number of cells seven days after induction compared to the plating density at day 0 (compound screen): strong increasing dose response

## C=C1c2cccc(O)c2C(=O)C2=C(O)[C@]3(O)C(=O)C(C(N)=O)=C(O)[C@@H](N(C)C)[C@@H]3[C@@H](O)[C@H]12 [Methacycline, methacycline]
iPSC line AG02261
  effect on endoderm induction at high concentration: mostly toxicity

## C[C@@H](N)[C@H]1CC[C@H](C(=O)Nc2ccncc2)CC1 [Y-27632]
iPSC lines [1]
  effect of adding Y-27632 to the protocol including doxycycline: promoted the efficient and complete differentiation of these cell lines
iPSC lines [1]; listed as Y27632
  effect of adding Y-27632 to the protocol including doxycycline: led to the rescue of additional stem cell lines
iPSC lines [2]; resistant lines
  rescue of induction by Y-27632 alone: does not produce the same robust induction; also recorded: not able to rescue resistant lines

## N.N.N.N.N.N.N.N.N.N.N.N.N.N.[Cl-].[Cl-].[Cl-].[Cl-].[Cl-].[Cl-].[O-2].[O-2].[Ru+3].[Ru+3].[Ru+4] [Ruthenium Red]
iPSC line AG02261
  response in compound screen, number of cells seven days after induction: showed responses at specific doses

## Cc1c[nH]c(-c2cnc(NCCNc3ccc(C#N)cn3)nc2-c2ccc(Cl)cc2Cl)n1 [CHIR99021]
iPSC lines [2]; addition in the first 24 hours
  effect on number of cells in endoderm induction: improved the number of cells in multiple different cell lines

## CN(C)c1ccc(O)c2c1C[C@H]1C[C@H]3[C@H](N(C)C)C(O)=C(C(N)=O)C(=O)[C@@]3(O)C(O)=C1C2=O [Minocycline, minocycline]
iPSC line AG02261
  effect on endoderm induction at high concentration: mostly toxicity

## CC1(C)S[C@@H]2[C@H](NC(=O)[C@H](N)c3ccccc3)C(=O)N2[C@H]1C(=O)O [ampicillin]
iPSC lines [1]
  ability to enhance survival of cells during induction to endoderm, other antibiotic classes compared to doxycycline: only Gentamicin showed a similar statistically significant ability

## N=C(N)SCCc1ccc(OCc2ccc([N+](=O)[O-])cc2)cc1 [KB-R7943]
iPSC line AG02261
  response in compound screen, number of cells seven days after induction: showed responses at specific doses

## CN(C)[C@@H]1C(O)=C(C(N)=O)C(=O)[C@@]2(O)C(O)=C3C(=O)c4c(O)ccc(Cl)c4[C@@H](O)[C@H]3C[C@@H]12 [Demeclocycline, demeclocycline]
iPSC line AS7192
  ability to rescue endoderm induction compared to doxycycline: to some extent

## COc1ccc(C[C@H](N)C(=O)N[C@H]2[C@@H](O)[C@H](n3cnc4c(N(C)C)ncnc43)O[C@@H]2CO)cc1 [Puromycin]
iPSC lines [1]
  ability to enhance survival of cells during induction to endoderm, other antibiotic classes compared to doxycycline: only Gentamicin showed a similar statistically significant ability
